Relative viability data for twelve cell lines are collected here from the supplement of paper PMC10307832.

Holding throughout (assay): relative viability (nuclei count vs DMSO), 5 days (fraction); higher = more cells survive
Compound in the assay “Selumetinib + Linsitinib”: Cn1cnc2c(F)c(Nc3ccc(Br)cc3Cl)c(C(=O)NOCCO)cc21 [Selumetinib] + C[C@]1(O)C[C@@H](c2nc(-c3ccc4ccc(-c5ccccc5)nc4c3)c3c(N)nccn32)C1 [Linsitinib] (partner 1 µM)
The method in brief:
(§1)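 Relative viability divides the nuclei count in treated wells by that in vehicle wells. Lung cancer cell lines were seeded in 1536-well plates, dosed by pin tool the next day, and fixed and stained after 5 days in one step with final 0.05% Triton X-100, 1% formaldehyde and 1 ug/ml Hoechst. Dosing was a single drug or a fixed anchor-drug dose plus five library-drug doses (not always all listed) in √10 steps, and values are medians of duplicate plates imaged at 4×.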

Compound in the assay “Venetoclax + Phenformin”: CC1(C)CCC(CN2CCN(c3ccc(C(=O)NS(=O)(=O)c4ccc(NCC5CCOCC5)c([N+](=O)[O-])c4)c(Oc4cnc5[nH]ccc5c4)c3)CC2)=C(c2ccc(Cl)cc2)C1 [Venetoclax] + N=C(N)NC(=N)NCCc1ccccc1 [Phenformin] (partner 250 µM)
The method in brief:
as §1

Compound in the assay “Venetoclax + Luminespib”: CC1(C)CCC(CN2CCN(c3ccc(C(=O)NS(=O)(=O)c4ccc(NCC5CCOCC5)c([N+](=O)[O-])c4)c(Oc4cnc5[nH]ccc5c4)c3)CC2)=C(c2ccc(Cl)cc2)C1 [Venetoclax] + CCNC(=O)c1noc(-c2cc(C(C)C)c(O)cc2O)c1-c1ccc(CN2CCOCC2)cc1 [Luminespib] (partner 0.01 µM)
An outline of the steps:
as §1

Compound in the assay “Venetoclax + Decitabine”: CC1(C)CCC(CN2CCN(c3ccc(C(=O)NS(=O)(=O)c4ccc(NCC5CCOCC5)c([N+](=O)[O-])c4)c(Oc4cnc5[nH]ccc5c4)c3)CC2)=C(c2ccc(Cl)cc2)C1 [Venetoclax] + Nc1ncn([C@H]2C[C@H](O)[C@@H](CO)O2)c(=O)n1 [Decitabine] (partner 2 µM)
An outline of the steps:
as §1

Consider IA-LM, for which the relative viability with Selumetinib + Linsitinib (first compound 0.02 µM) amounted to 0.406; in the assay with Selumetinib + Linsitinib (first compound 0.06325 µM), 0.296; with Selumetinib + Linsitinib (first compound 0.2 µM), 0.295; with Selumetinib + Linsitinib (first compound 0.6325 µM) it was 0.254.

Regarding ChaGo-K-1, the relative viability turned out to be 0.539 in the assay with Venetoclax + Phenformin (first compound 0.01 µM); 0.489 in the assay with Venetoclax + Phenformin (first compound 0.03162 µM); 0.429 in the assay with Venetoclax + Phenformin (first compound 0.1 µM); 0.49 with Venetoclax + Phenformin (first compound 0.3162 µM); 0.453 with Venetoclax + Phenformin (first compound 1 µM); 0.459 in the assay with Venetoclax + Luminespib (first compound 0.01 µM). For the same cell line, the relative viability with Venetoclax + Luminespib (first compound 0.03162 µM) was 0.709; in the assay with Venetoclax + Luminespib (first compound 0.1 µM), 0.637; with Venetoclax + Luminespib (first compound 0.3162 µM), 0.628; in the assay with Venetoclax + Luminespib (first compound 1 µM), 0.59; in the assay with Venetoclax + Decitabine (first compound 0.01 µM), 0.465; with Venetoclax + Decitabine (first compound 0.03162 µM), 0.503. Moreover, the relative viability worked out at 0.488 with Venetoclax + Decitabine (first compound 0.1 µM), 0.545 in the assay with Venetoclax + Decitabine (first compound 0.3162 µM) and 0.519 in the assay with Venetoclax + Decitabine (first compound 1 µM).

For NCI-H1650, the relative viability in the assay with Venetoclax + Phenformin (first compound 0.01 µM) amounted to 0.515; with Venetoclax + Phenformin (first compound 0.03162 µM) it was 0.479; with Venetoclax + Phenformin (first compound 0.1 µM), 0.541; in the assay with Venetoclax + Phenformin (first compound 0.3162 µM), 0.534; with Venetoclax + Phenformin (first compound 1 µM) it was 0.377; in the assay with Venetoclax + Luminespib (first compound 0.01 µM) it was 0.196. Further, the relative viability with Venetoclax + Luminespib (first compound 0.03162 µM) came to 0.202; with Venetoclax + Luminespib (first compound 0.1 µM), 0.2; with Venetoclax + Luminespib (first compound 0.3162 µM), 0.189; with Venetoclax + Luminespib (first compound 1 µM) it was 0.207; with Venetoclax + Decitabine (first compound 0.01 µM) it was 0.545; with Venetoclax + Decitabine (first compound 0.03162 µM), 0.422. Moreover, the relative viability was determined as 0.408 in the assay with Venetoclax + Decitabine (first compound 0.1 µM), 0.407 with Venetoclax + Decitabine (first compound 0.3162 µM) and 0.363 with Venetoclax + Decitabine (first compound 1 µM).

Take NCI-H1648: the relative viability with Venetoclax + Decitabine (first compound 0.03162 µM) stood at 0.487; with Venetoclax + Decitabine (first compound 0.1 µM), 0.418; with Venetoclax + Decitabine (first compound 0.3162 µM), 0.634; with Venetoclax + Decitabine (first compound 1 µM), 0.491.

Turning to NCI-H1703, the relative viability with Selumetinib + Linsitinib (first compound 0.02 µM) was determined as 0.75; with Selumetinib + Linsitinib (first compound 0.06325 µM), 0.637; with Selumetinib + Linsitinib (first compound 0.2 µM) it was 0.67; in the assay with Selumetinib + Linsitinib (first compound 0.6325 µM), 0.824.

In the case of A549, the relative viability is 0.141 with Venetoclax + Phenformin (first compound 0.01 µM); 0.147 with Venetoclax + Phenformin (first compound 0.03162 µM); 0.129 with Venetoclax + Phenformin (first compound 0.1 µM); 0.164 with Venetoclax + Phenformin (first compound 0.3162 µM); 0.129 with Venetoclax + Phenformin (first compound 1 µM); 0.489 in the assay with Selumetinib + Linsitinib (first compound 0.02 µM). In addition, the relative viability with Selumetinib + Linsitinib (first compound 0.06325 µM) stood at 0.436; with Selumetinib + Linsitinib (first compound 0.2 µM), 0.363; with Selumetinib + Linsitinib (first compound 0.6325 µM), 0.349; with Venetoclax + Decitabine (first compound 0.01 µM), 0.22; with Venetoclax + Decitabine (first compound 0.03162 µM), 0.325; in the assay with Venetoclax + Decitabine (first compound 0.1 µM), 0.159. For the same cell line, the results for the relative viability with Venetoclax + Decitabine (first compound 0.3162 µM) and in the assay with Venetoclax + Decitabine (first compound 1 µM) were 0.214 and 0.274, respectively.

Consider NCI-H522, for which the relative viability with Venetoclax + Phenformin (first compound 0.01 µM) amounted to 0.647; with Venetoclax + Phenformin (first compound 0.03162 µM), 0.735; with Venetoclax + Phenformin (first compound 0.1 µM), 0.561; with Venetoclax + Phenformin (first compound 0.3162 µM), 0.613; with Venetoclax + Phenformin (first compound 1 µM), 0.637; in the assay with Venetoclax + Luminespib (first compound 0.01 µM), 1.14. Further, the relative viability was 1.21 with Venetoclax + Luminespib (first compound 0.03162 µM); 1.04 in the assay with Venetoclax + Luminespib (first compound 0.1 µM); 1.19 in the assay with Venetoclax + Luminespib (first compound 1 µM); 0.657 with Venetoclax + Decitabine (first compound 0.01 µM); 0.694 with Venetoclax + Decitabine (first compound 0.03162 µM); 0.617 with Venetoclax + Decitabine (first compound 0.1 µM). The relative viability worked out at 0.605 with Venetoclax + Decitabine (first compound 0.3162 µM) and 0.677 with Venetoclax + Decitabine (first compound 1 µM).

On to NCI-H2170, for which the relative viability was determined as 0.319 in the assay with Venetoclax + Phenformin (first compound 0.01 µM); 0.415 in the assay with Venetoclax + Phenformin (first compound 0.03162 µM); 0.399 with Venetoclax + Phenformin (first compound 0.1 µM); 0.368 with Venetoclax + Phenformin (first compound 0.3162 µM); 0.34 in the assay with Venetoclax + Phenformin (first compound 1 µM); 0.589 with Venetoclax + Luminespib (first compound 0.01 µM). Moreover, the relative viability in the assay with Venetoclax + Luminespib (first compound 0.03162 µM) stood at 0.427; in the assay with Venetoclax + Luminespib (first compound 0.1 µM) it was 0.766; with Venetoclax + Luminespib (first compound 0.3162 µM) it was 0.737; with Venetoclax + Luminespib (first compound 1 µM), 0.689; with Venetoclax + Decitabine (first compound 0.01 µM) it was 0.442; with Venetoclax + Decitabine (first compound 0.03162 µM), 0.46. The values for the relative viability with Venetoclax + Decitabine (first compound 0.1 µM), with Venetoclax + Decitabine (first compound 0.3162 µM) and with Venetoclax + Decitabine (first compound 1 µM) were 0.431, 0.451 and 0.473, respectively.

Regarding NCI-H1623, the relative viability was determined as 0.556 with Venetoclax + Phenformin (first compound 0.01 µM); 0.607 with Venetoclax + Phenformin (first compound 0.03162 µM); 0.597 with Venetoclax + Phenformin (first compound 0.1 µM); 0.64 with Venetoclax + Phenformin (first compound 0.3162 µM); 0.63 in the assay with Venetoclax + Phenformin (first compound 1 µM); 0.545 with Venetoclax + Luminespib (first compound 0.01 µM). Further, the relative viability in the assay with Venetoclax + Luminespib (first compound 0.03162 µM) was found to be 0.502; with Venetoclax + Luminespib (first compound 0.1 µM), 0.566; with Venetoclax + Luminespib (first compound 0.3162 µM) it was 0.6; with Venetoclax + Luminespib (first compound 1 µM) it was 0.464.

For SW 900, the relative viability with Venetoclax + Phenformin (first compound 0.01 µM) was found to be 0.385; with Venetoclax + Phenformin (first compound 0.03162 µM) it was 0.702; in the assay with Venetoclax + Phenformin (first compound 0.1 µM), 0.528; in the assay with Venetoclax + Phenformin (first compound 0.3162 µM), 0.706; with Venetoclax + Phenformin (first compound 1 µM) it was 0.623; with Venetoclax + Luminespib (first compound 0.01 µM), 0.163. The relative viability with Venetoclax + Luminespib (first compound 0.03162 µM) is 0.153; with Venetoclax + Luminespib (first compound 0.1 µM) it was 0.197; with Venetoclax + Luminespib (first compound 0.3162 µM), 0.168; with Venetoclax + Luminespib (first compound 1 µM), 0.182; with Venetoclax + Decitabine (first compound 0.01 µM) it was 0.455; with Venetoclax + Decitabine (first compound 0.03162 µM) it was 0.444. Moreover, the figures for the relative viability in the assay with Venetoclax + Decitabine (first compound 0.1 µM), with Venetoclax + Decitabine (first compound 0.3162 µM) and with Venetoclax + Decitabine (first compound 1 µM) were 0.356, 0.405 and 0.39, respectively.

Consider CAL-12T, for which the relative viability with Venetoclax + Phenformin (first compound 0.01 µM) turned out to be 0.543; in the assay with Venetoclax + Phenformin (first compound 0.03162 µM) it was 0.575; with Venetoclax + Phenformin (first compound 0.1 µM), 0.567; with Venetoclax + Phenformin (first compound 0.3162 µM) it was 0.555; with Venetoclax + Phenformin (first compound 1 µM), 0.539; with Selumetinib + Linsitinib (first compound 0.02 µM), 0.821. Moreover, the relative viability is 0.762 in the assay with Selumetinib + Linsitinib (first compound 0.06325 µM); 0.663 with Selumetinib + Linsitinib (first compound 0.2 µM); 0.588 with Selumetinib + Linsitinib (first compound 0.6325 µM); 0.353 with Venetoclax + Luminespib (first compound 0.01 µM); 0.254 with Venetoclax + Luminespib (first compound 0.03162 µM); 0.375 with Venetoclax + Luminespib (first compound 0.1 µM). The relative viability came to 0.24 with Venetoclax + Luminespib (first compound 0.3162 µM) and 0.412 in the assay with Venetoclax + Luminespib (first compound 1 µM).

Regarding EBC-1, the relative viability turned out to be 0.917 in the assay with Selumetinib + Linsitinib (first compound 0.02 µM), 0.844 in the assay with Selumetinib + Linsitinib (first compound 0.06325 µM), 0.933 in the assay with Selumetinib + Linsitinib (first compound 0.2 µM) and 0.518 with Selumetinib + Linsitinib (first compound 0.6325 µM).
